Results taken from patent publication US9645154B2, “Method for detecting cancer cell” (ARKRAY, Inc., priority 2010, dated 2017).

Columns and labels:
Blood cells = assay: Labeled sugar incorporation, fluorescence microscopy image analysis (false-positive/negative rate); type: cell-based, human
Description: Blood was collected from a human subject using a vacuum blood collection tube (with EDTA•2K). Blood cells were separated using HetaSep (STEMCELL Technologies) in accordance with manufacturer's instructions.
When performing the hemolyzing treatment, the blood cell fraction collected as described above was hemolyzed using ammonium chloride (STEMCELL Technologies) according to the manufacture's manuals.
The number of the cells was counted for each cell line using a hemacytometer in accordance with the conventional method, and then 10^5 to 10^6 cells per sample (cell suspension) was aliquoted. Each of the sample was centrifuged to remove the supernatant. Subsequently, 2-NBDG (Wako Pure Chemical Industries, Ltd.; at the final concentration given in Table 3 or 4) dissolved in Dulbecco's PBS (−) was added thereto, and the cells were suspended well. After the reaction, Dulbecco's PBS (−) was added to the mixture, and the resultant was centrifuged to remove the supernatant. The cells were resuspended with Dulbecco's PBS (−) and centrifuged, and the supernatant was removed again. The steps of resuspending cells with Dulbecco's PBS (−), centrifuging and removing the supernatant were then repeated 2 to 3 times, thereby washing the cells thoroughly. The cells were resuspended with Dulbecco's PBS (−), the concentration thereof was adjusted, and then added dropwise to a 384-well plate. The plate was centrifuged to spin down the cells. The image was captured with a fluorescence microscope (Nikon Corp.) using B-2A filter combination (Nikon Corp.). The B-2A set covers the following wavelengths. EX (excitation wavelength): 475±15 nm, DM: 505 nm or longer, BA (fluorescence wavelength) 520 nm or longer.
The acquired images were analyzed using an image analysis software NIS-ELEMENTS (trade name, Nikon Corp.) to evaluate the fluorescence intensity of the cell. […]

[1] = system: Breast cancer cell line MCF-7 and blood cells (leucocytes and erythrocytes); assay: 2-NBDG incorporation observed visually under a fluorescence microscope; type: cell-based, human; conditions: sample 1, mixture of MCF-7 and blood cells, 37° C., 40 minutes
Protocol: From venous blood of a healthy person, a […] and precipitates were separated by centrifugation according to the conventional method. From the […], a leucocyte layer and an erythrocyte layer were partially collected, and then resuspended in PBS to prepare a leucocyte sample and a erythrocyte sample, respectively.
Breast cancer cell line MCF-7 (purchased from DS Pharma Biomedical Co., Ltd). was cultured at 37° C. with 5% (v/v) CO2 using α-MEM culture medium (Invitrogen, supplemented with 10% (v/v) FBS, 2 mM L-glutamine, 100 U/mL penicillin and 100 μg/mL streptomycin). Immediately before the test, the cells were harvested with 0.25% trypsin-EDTA and washed with PBS, thereby preparing a cancer cell line sample.
To each of 300 μL (4×10^5 cells/mL) of the cancer cell line, the blood cells (leucocytes and erythrocytes) or a mixture thereof was added 30 μL of 10 mM 2-[N-(7-nitrobenz-2-oxa-1,3-diazol-4-yl)amino]-2-deoxy-D-glucose (2-NBDG) (Wako Pure Chemical Industries, Ltd.) according to the description in Table 2, thereby preparing samples 1 to 7. These samples were then incubated at 37° C. for 40 minutes. To the sample to which 2-NBDG was not added, a corresponding amount of PBS was added instead of 2-NBDG.
After incubation, each sample was centrifuged at 2,000 rpm for 5 minutes (Hitachi Ltd.) to harvest the cells. To the harvested cells was added 10 μL of an anti-EpCAM antibody-PE (R&D systems), and the mixture was allowed to stand for 30 minutes in the cool and dark place.
After 30 minutes, the mixture was washed with 1,000 μL of PBS, and the cells were harvested by centrifugation at 2000 rpm for 5 minutes in accordance with the conventional method.
The harvested cells were resuspended in 50 μL of PBS, and the entire volume thereof was transferred to a 96-well plate, thereby preparing an observation sample.
Each of the observation samples was observed under a fluorescence microscope (Nikon Corp.), and an amount of 2-NBDG incorporated was visually observed.

[2] = fresh blood, Mean luminance, hemolyzed, 10 mM, 5 min, 23° C.
[3] = fresh blood, Total luminance, hemolyzed, 10 mM, 5 min, 23° C.
[4] = hemolyzed, 10 mM, 5 min, 23° C.
[5] = hemolyzed, 10 mM, 5 min, 23° C., threshold value 280 (Colon adenocarcinoma)
[6] = hemolyzed, 10 mM, 5 min, 23° C., threshold value 330 (Breast adenocarcinoma)
[7] = hemolyzed, 10 mM, 5 min, 23° C., threshold value 370 (Alveolar epithelial cancer)
[8] = hemolyzed, 10 mM, 5 min, 23° C., threshold value 370 (Fibrosarcoma)
[9] = hemolyzed, 10 mM, 5 min, 23° C., threshold value 490 (Gastric cancer)
[10] = hemolyzed, 10 mM, 5 min, 23° C., threshold value 880 (Prostate cancer)
[11] = hemolyzed, 0.1 mM, 37° C., 30 min, threshold value 380
[12] = hemolyzed, 1 mM, 37° C., 30 min, threshold value 520
[13] = hemolyzed, 10 mM, 37° C., 30 min, threshold value 1150
[14] = hemolyzed, 4° C., 10 mM, 5 min, threshold value 640
[15] = hemolyzed, 23° C., 10 mM, 5 min, threshold value 640
[16] = hemolyzed, 37° C., 10 mM, 5 min, threshold value 750
[17] = hemolyzed, 5 min, 10 mM, 37° C., threshold value 570
[18] = hemolyzed, 30 min, 10 mM, 37° C., threshold value 880
[19] = hemolyzed, 60 min, 10 mM, 37° C., threshold value 750
[20] = not hemolyzed, 10 mM, 5 min, 23° C.
[21] = single, Glucose conc.: 1 mM, Temp.: 37° C., Time: 30 min, threshold value 280 (Colon adenocarcinoma)
[22] = single, Glucose conc.: 1 mM, Temp.: 37° C., Time: 30 min, threshold value 370 (Fibrosarcoma)
[23] = single, Glucose conc.: 1 mM, Temp.: 37° C., Time: 30 min, threshold value 490 (Gastric cancer)
[24] = without hemolyzing treatment, 0.1 mM, 37° C., 30 min, threshold value 280
[25] = without hemolyzing treatment, 1 mM, 37° C., 30 min, threshold value 330
[26] = without hemolyzing treatment, 10 mM, 37° C., 30 min, threshold value 450 (concentration series)
[27] = without hemolyzing treatment, 4° C., 10 mM, 5 min, threshold value 310
[28] = without hemolyzing treatment, 23° C., 10 mM, 5 min, threshold value 360
[29] = without hemolyzing treatment, 37° C., 10 mM, 5 min, threshold value 390
[30] = without hemolyzing treatment, 5 min, 10 mM, 37° C., threshold value 380
[31] = without hemolyzing treatment, 30 min, 10 mM, 37° C., threshold value 450 (time series)
[32] = without hemolyzing treatment, 60 min, 10 mM, 37° C., threshold value 500

O=[N+]([O-])c1ccc(N[C@H]2C(O)O[C@H](CO)[C@@H](O)[C@@H]2O)c2nonc12 (stereo partly drawn) [2-NBDG, 2-[N-(7-nitrobenz-2-oxa-1,3-diazol-4-yl)amino]-2-deoxy-D-glucose]
Negative rate (Blood cells) (Blood cells; [2]): 95.2% | Positive rate of cancer cells (Blood cell data) (Blood cells; [2]): 4.8% | Negative rate (Blood cells) (Blood cells; [3]): 91.0% | Positive rate of cancer cells (Blood cell data) (Blood cells; [3]): 9.0% | Negative rate (Blood cells (fresh blood)) (Blood cells; [4]): 95.2% | Positive rate (Blood cells (fresh blood)) (Blood cells; [4]): 4.8% | Negative rate (Blood cells (fresh blood)) (Blood cells; [5]): 96.6% | Positive rate (Blood cells (fresh blood)) (Blood cells; [5]): 3.4% | Negative rate (Blood cells (fresh blood)) (Blood cells; [6]): 94.2% | Positive rate (Blood cells (fresh blood)) (Blood cells; [6]): 5.8% | Negative rate (Blood cells (fresh blood)) (Blood cells; [7]): 98.3% | Positive rate (Blood cells (fresh blood)) (Blood cells; [7]): 1.7% | Negative rate (Blood cells (fresh blood)) (Blood cells; [8]): 95.2% | Positive rate (Blood cells (fresh blood)) (Blood cells; [8]): 4.8% | Negative rate (Blood cells (fresh blood)) (Blood cells; [9]): 100.0% | Positive rate (Blood cells (fresh blood)) (Blood cells; [9]): 0.0% | Negative rate (Blood cells (fresh blood)) (Blood cells; [10]): 100.0% | Positive rate (Blood cells (fresh blood)) (Blood cells; [10]): 0.0% | Negative rate (Blood cells) (Blood cells; [11]): 100.0% | Positive rate (Blood cells) (Blood cells; [11]): 0.0% | Negative rate (Blood cells) (Blood cells; [12]): 98.9% | Positive rate (Blood cells) (Blood cells; [12]): 1.1% | Negative rate (Blood cells) (Blood cells; [13]): 100.0% | Positive rate (Blood cells) (Blood cells; [13]): 0.0% | Negative rate (Blood cells) (Blood cells; [14]): 100.0% | Positive rate (Blood cells) (Blood cells; [14]): 0.0% | Negative rate (Blood cells) (Blood cells; [15]): 99.2% | Positive rate (Blood cells) (Blood cells; [15]): 0.8% | Negative rate (Blood cells) (Blood cells; [16]): 98.5% | Positive rate (Blood cells) (Blood cells; [16]): 1.5% | Negative rate (Blood cells) (Blood cells; [17]): 99.1% | Positive rate (Blood cells) (Blood cells; [17]): 0.9% | Negative rate (Blood cells) (Blood cells; [18]): 99.7% | Positive rate (Blood cells) (Blood cells; [18]): 0.3% | Negative rate (Blood cells) (Blood cells; [19]): 97.1% | Positive rate (Blood cells) (Blood cells; [19]): 2.9% | Negative rate (Blood cells (fresh blood)) (Blood cells; [20]): 97.9% | Positive rate (Blood cells (fresh blood)) (Blood cells; [20]): 2.1% | Negative rate (Blood cells (fresh blood)) (Blood cells; [21]): 96.6% | Positive rate (Blood cells (fresh blood)) (Blood cells; [21]): 3.4% | Negative rate (Blood cells (fresh blood)) (Blood cells; [22]): 95.2% | Positive rate (Blood cells (fresh blood)) (Blood cells; [22]): 4.8% | Negative rate (Blood cells (fresh blood)) (Blood cells; [23]): 100.0% | Positive rate (Blood cells (fresh blood)) (Blood cells; [23]): 0.0% | Negative rate (Blood cells) (Blood cells; [24]): 100.0% | Positive rate (Blood cells) (Blood cells; [24]): 0.0% | Negative rate (Blood cells) (Blood cells; [25]): 98.5% | Positive rate (Blood cells) (Blood cells; [25]): 1.5% | Negative rate (Blood cells) (Blood cells; [26]): 98.9% | Positive rate (Blood cells) (Blood cells; [26]): 1.1% | Negative rate (Blood cells) (Blood cells; [27]): 99.1% | Positive rate (Blood cells) (Blood cells; [27]): 0.9% | Negative rate (Blood cells) (Blood cells; [28]): 97.9% | Positive rate (Blood cells) (Blood cells; [28]): 2.1% | Negative rate (Blood cells) (Blood cells; [29]): 99.0% | Positive rate (Blood cells) (Blood cells; [29]): 1.0% | Negative rate (Blood cells) (Blood cells; [30]): 98.6% | Positive rate (Blood cells) (Blood cells; [30]): 1.4% | Negative rate (Blood cells) (Blood cells; [31]): 98.9% | Positive rate (Blood cells) (Blood cells; [31]): 1.1% | Negative rate (Blood cells) (Blood cells; [32]): 91.2% | Positive rate (Blood cells) (Blood cells; [32]): 8.8% | fluorescence image of erythrocyte cell [1]: not observed at all | fluorescence intensity of the leucocyte cell image relative to the cancer cell [1]: equal to or less than half the fluorescence intensity of the cancer cell | observation of the cancer cell line in the fluorescence image ([1]; FIGS. 4 to 6): clearly observed
